In patent US20060003985A1, “Enhancement of sleep with t-type calcium channel antagonists” (priority 2002, published 2006):

System: Sprague Dawley rats
Experiment: Rat sleep study with ECoG/EMG telemetry (sleep stage scoring)
Type: in vivo
Conditions: averaged over seven nights
Text: This study examined the effects of the T-type calcium channel antagonist Compound A (6-chloro-3,4-dihydro-3-ethyl-4-phenyl-4-ethyl-2(1H)-quinazolinone; PCT WO 93/04047) on sleep by using electrocorticogram (ECoG) or electroencephalographic (EEG) measures to determine the efficacy of the T-type calcium channel antagonistin the altering the states of arousal or sleep.
Eight adult male Sprague Dawley rats (450-550 g; Taconic Farms, Germantown, N.Y.) were subcutaneously implanted with telemetric physiologic monitors (Model F50-EET; Data Sciences International, Arden Hills, Minn.) that were used to simultaneously record both the electrocorticogram (ECoG) and electromyographic (EMG) activities. […]
Following the completion of data collection, all data were scored with automated sleep stage analysis software, Somnologica (Medcare Co.; Buffalo, N.Y.). […] Active wake was assigned to the epoch when movement of the animal was detected within the cage, or when there was an active EMG signal and the EEG consisted of alpha and beta frequency activity. An epoch was scored as light sleep when there was no movement activity, the EMG was moderately active and the EEG consisted of either theta or theta with less than 50% of the epoch showing delta activity. Delta sleep was scored when there was no movement, reduced EMG activity, and the EEG consisted of more than 50% delta wave activity (i.e. 0.5 to 4 Hz). […]

With CCN1C(=O)Nc2ccc(Cl)cc2C1(CC)c1ccccc1 (centres unmarked) [Compound A, 6-chloro-3,4-dihydro-3-ethyl-4-phenyl-4-ethyl-2(1H)-quinazolinone] the “entries into awake relative to vehicle (sleep fragmentation)” value (FIG. 1, 30 minute bins) was “reduced the entries into awake relative to vehicle” and the “wake duration relative to vehicle” value (FIG. 2, 30 minute bins) was “reduced the wake duration relative to vehicle”.
